The test system of series [1] is T-ALL cells. Conditions: Miele 2006; cited from earlier work.
In series [2] the test system is ALL-SIL cells. As to the kind of experiment: Proliferation, viability and cell cycle of T-ALL cell line (viable cell count, FACS). Format: cell-based, human. Conditions: for proliferation: proliferation period of 3 days. The method, then: (§1) DND-41, HSB-2, RPMI-8402, ALL-SIL, MOLT-4, LOUCY, P12-ICHIKAWA, CCRF-CEM (DSMZ, Braunschweig, Germany) were cultured in RPMI-1640 supplemented with 20% fetal calf serum. The number or percentage of viable cells was counted with a Vi-cell XR cell viability analyzer (Beckman Coulter, Fullerton, Calif.). For differentiation experiments, cells were cultured during a period of 6 days and electroporated on the first day and again on the 4th day with 50 nM siRNA. MYB stealth select siRNAs were purchased from Invitrogen (Carlsbad, Calif.). […] Electroporation with a stealth siRNA directed against ERBB4 (Invitrogen, Carlsbad, Calif.), a gene not expressed in these cell lines, served as a control. […] For inhibition of NOTCH1, we treated the cell ines with 1 μM of Compound E (gamma-secretase inhibitor XXI, Calbiochem, San Diego, Calif.) or DMSO (control). The percentage proliferation was calculated by comparing the increase of the number of viable cells from treated cells to the increase of the number of viable cells treated with DMSO and electroporated with a control siRNA, and this for a proliferation period of 3 days.
(§2) Analysis of CD1a, CD3, CD4 and CD8 expression and cell cycle analysis was performed on 0.3-1×10^6 cells 6 days after the first electroporation with siRNA. We used the PE/CD1a, and the TriTEST CD4 FITC/CD8 PE/CD3 PerCP Reagent kit (Becton Dickinson, San Jose, Calif.) and the CycleTEST™ PLUS DNA Reagent Kit (Becton Dickinson). After staining, the cells were detected on a FACSCanto Flow Cytometer (Becton Dickinson) and the data were analyzed with the BD FACSDiva software (Becton Dickinson). Unstained cells and cells treated with ERBB4 siRNA were used as controls. Cell sorting was performed after staining of the cells with the TriTEST CD4/CD8/CD3 kit. Cells were separated into two fractions (differentiated and undifferentiated) using the FACSVantage SE system (Becton Dickinson).
(§3) Cell lines were electroporated every four days with 50-250 nM siRNA. MYB stealth select siRNAs (MYB-HSS106819) were purchased from Invitrogen (Carlsbad, Calif.).

The subject of series [3] is RPMI-8402 cells. Described as above. It counts as cell-based, human. Conditions: for proliferation: proliferation period of 3 days. The method, then: as §1, §2, §3
Series [4] has as its system ALL-SIL. Conditions: reference 4; cited from earlier work.
In series [5] the test system is MOLT-4. Conditions: reference 4; cited from earlier work.
In series [6] the test system is RPMI-8402. Conditions: reference 4; cited from earlier work.
The test system of series [7] is Ras-transformed fibroblasts. Conditions: Miele 2006; cited from earlier work.
In series [8] the test system is melanoma xenografts. Conditions: Miele 2006; cited from earlier work.
In series [9] the test system is melanoma cell lines. Conditions: Miele 2006; cited from earlier work.
Series [10] has as its system MYB. As to the kind of experiment: Knockdown of MYB expression by siRNA electroporation, protein blot analysis. It counts as cell-based, human. Conditions: among MYB stealth select siRNAs. Here is the method: FIG. 1: Effect of knockdown of MYB expression on T-ALL cell lines. (a) Protein blot analysis showing that electroporation of three different MYB siRNAs in RPMI-8402 cells causes a decrease of MYB expression, compared with electroporation with no siRNA or control siRNA (ERBB4). […] Control cells were treated with dimethylsulfoxide or a control siRNA. Error bars indicate s.e.m.
DND-41, HSB-2, RPMI-8402, ALL-SIL, MOLT-4, LOUCY, P12-ICHIKAWA, CCRF-CEM (DSMZ, Braunschweig, Germany) were cultured in RPMI-1640 supplemented with 20% fetal calf serum. The number or percentage of viable cells was counted with a Vi-cell XR cell viability analyzer (Beckman Coulter, Fullerton, Calif.). For differentiation experiments, cells were cultured during a period of 6 days and electroporated on the first day and again on the 4th day with 50 nM siRNA. MYB stealth select siRNAs were purchased from Invitrogen (Carlsbad, Calif.). […] Electroporation with a stealth siRNA directed against ERBB4 (Invitrogen, Carlsbad, Calif.), a gene not expressed in these cell lines, served as a control. […] The percentage proliferation was calculated by comparing the increase of the number of viable cells from treated cells to the increase of the number of viable cells treated with DMSO and electroporated with a control siRNA, and this for a proliferation period of 3 days. […]

Series [11] has as its system ALL-SIL cells. Nature of the series: Differentiation of T-ALL cell line after MYB knockdown (FACS of CD1a, CD3, CD4, CD8). Format: cell-based, human. The method, then:
as §1, §2

Series [12] relates to RPMI-8402 cells. The series is described as above. It counts as cell-based, human. Here is the method: as §1, §2
The subject of series [13] is MOLT-4 cells. Described as above. Format: cell-based, human. The method, then:
as §1, §2

Setting [14] is: siRNA electroporation and/or 1 μM Compound E, vs DMSO and control siRNA.
The mark [15] stands for this setting: 50 nM siRNA electroporated day 1 and day 4, 6 days.
Where [16] appears, read: flow-sorted cells analysed 10 d later.

Non-standard residues stand in square brackets, D forms with d. Residues, ends and D or L forms follow the SMILES beside them. *: point of attachment. Nle = CCCC[C@H](N)C(=O)O; Cbz = O=C(OCc1ccccc1)*

Data on four molecules can be found in patent US8173423B2, “Diagnosis and treatment of T-cell acute lymphoblastic leukemia” (VIB VZW, priority 2006, dated 2012).

`C[C@H](NC(=O)Cc1cc(F)cc(F)c1)C(=O)N[C@H]1N=C(c2ccccc2)c2ccccc2N(C)C1=O` [Compound E, (S, S)-2-[2-(3,5-Difluorophenyl)-acetylamino]-N-(1-methyl-2-oxo-5-phenyl-2,3-dihydro-1H-benzo[e][1,4]diazepin-3-yl)-propionamide]: the growth entry in series [1] was “causes growth arrest”. The proliferation entry in series [2] (setting [14]) is “inhibition of the proliferation”; in series [3] (setting [14]) it was “inhibition of the proliferation”; in [4] it was “inhibit the proliferation”; in [6], “inhibit the proliferation”. For the same molecule, in series [5], the “sensitivity to GSI treatment” value is given as “not sensitive”.

As for `CCC(C)C(NC(=O)OCc1ccccc1)C(=O)NC(C=O)CC(C)C` (stereo not drawn) [cbz-IL-CHO] (Cbz-Ile-Leu-aldehyde; configuration not given here), the antineoplastic activity result in [7] is “Notch-1—dependent antineoplastic activity”.

Take `CCCC[C@@H](C=O)NC(=O)[C@H](CC(C)C)NC(=O)[C@H](CC(C)C)NC(=O)OCc1ccccc1` [z-Leu-leu-Nle-CHO] (Cbz-Leu-Leu-[Nle]-aldehyde): the apoptosis result in series [8] and in [9] was “induces apoptosis” in each case.

Consider “MYB siRNA 1: MYB stealth select siRNA (Invitrogen), sequence 5′UAUAGUGUCUCUGAAUGGCUGCGGC (SEQ ID NO:1) with complementary strand SEQ ID NO:2 (chain 2 GCCGCAGCCAUUCAGAGACACUAUA; Invitrogen Stealth Select siRNA, chemistry not given here)”, for which, in series [10], the “efficiency of siRNA” value is “most efficient”. Besides, the cell cycle result in [2] (siRNA electroporation) and in series [3] (siRNA electroporation) was “only a limited effect” each time. Moreover, the proliferation entry in series [2] (setting [14]) and in [3] (setting [14]) was “only a limited effect” throughout. Besides, the “viability / cell survival” value in series [2] (setting [14]) and in series [3] (setting [14]) was “only a limited effect” in each case. The “differentiation (changes in expression of CD1a, CD3, CD4 or CD8 cell surface markers)” value in series [11] (setting [15]), in series [12] (setting [15]) and in series [13] (setting [15]) was “results in the differentiation” throughout. For the same molecule, the reversibility of differentiation result in [11] (setting [16]), in series [12] (setting [16]) and in [13] (setting [16]) was “irreversible” each time.
